Test results: patent US10098878B2, “HIF-2α inhibitors for treating iron overload disorders” (The Board of Regents of the University of Texas System, priority 2014, dated 2018)
Like-named read-outs stand apart in the source and are kept apart here.

Tests used:
786-O-Hif-Luc cells = experiment: Luciferase Assay; type: cell-based; conditions: read-out: Luciferase EC50
Method: A pool of infected cells were then selected against 2 μg/mL of puromycin (P8833, Sigma) for 10 days followed by limited dilution to select single clones.
Each concentration was tested in triplicate. After about 24 hours, luciferase activity was determined using ONE-Glo Luciferase Assay Reagent (E6110, Promega) following the manufacturer's recommended procedure. EC50 were calculated by using Dotmatics software.

[1] = molecular target: T1, HIF-2α HIS TAG-PASB Domain (Homo sapiens, UniProt Q99814); experiment: HIF-2α Scintillation Proximity Assay (SPA); type: binding; conditions: 100 nM HIF-2α HIS TAG-PASB Domain
T1 construct: 100 nM HIF-2α HIS TAG-PASB Domain
T1 sequence (Q99814 240-350 limits assumed): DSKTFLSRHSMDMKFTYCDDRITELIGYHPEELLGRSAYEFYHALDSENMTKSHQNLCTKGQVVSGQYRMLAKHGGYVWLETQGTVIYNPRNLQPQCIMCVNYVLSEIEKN
How it was run: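 IC50 values rest on percent inhibition, where the sample signal is scaled between high and low controls. Wells contain about 100 μL: compound dispensed as 2 μL of DMSO solution, 88 μL protein-probe mix and 10 μL of beads.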

[2] = 24 h, 786-O-Hif-Luc cells, about 24 hours
[3] = 150 nM Compound 211 probe, read-out: SPA IC50
[4] = SPA IC50, 150 nM Compound 211 probe
[5] = 786-O-Hif-Luc cells, about 24 hours

| SMILES | EC50 (786-O-Hif-Luc cells; [2]) [nM] | IC50 [1, 3] [nM] | other results |
| --- | --- | --- | --- |
| N#Cc1cc(F)cc(Oc2ccc3c(c2C(F)F)C(O)CS3(=O)=O)c1 (stereo not drawn) [Compound 138, 3-((4-(Difluoromethyl)-3-hydroxy-1,1-dioxido-2,3-dihydrobenzo[b]thiophen-5-yl)oxy)-5-fluorobenzonitrile] | 1430 | 700 |  |
| NC1c2c(ccc(Oc3cc(F)cc(F)c3)c2Br)S(=O)(=O)C1(F)F (stereo not drawn) [Compound 140, 3-Amino-4-bromo-5-(3,5-difluorophenoxy)-2,2-difluoro-2,3-dihydrobenzo[b]thiophene 1,1-dioxide] |  |  | EC50 (786-O-Hif-Luc cells; 24 h): 1700 nM; IC50 [1, 4]: < 5 nM |
| COCCNC1c2c(ccc(Oc3cc(F)cc(F)c3)c2Br)S(=O)(=O)C1(F)F (stereo not drawn) [Compound 143, 4-Bromo-5-(3,5-difluorophenoxy)-2,2-difluoro-3-((2-methoxyethyl)amino)-2,3-dihydrobenzo[b]thiophene 1,1-dioxide] | 1780 | < 5 |  |
| O=S1(=O)c2ccc(Oc3cncc(Cl)c3)c(C(F)F)c2C(O)C1(F)F (stereo not drawn) [Compound 145, 5-((5-Chloropyridin-3-yl)oxy)-4-(difluoromethyl)-2,2-difluoro-3-hydroxy-2,3-dihydrobenzo[b]thiophene 1,1-dioxide] |  |  | EC50 (786-O-Hif-Luc cells): 149 nM; IC50 [1, 4]: 229 nM |
| N#Cc1cncc(Oc2ccc3c(c2C(F)F)C(O)C(F)(F)S3(=O)=O)c1 (stereo not drawn) [Compound 147, 5-((4-(Difluoromethyl)-2,2-difluoro-3-hydroxy-1,1-dioxido-2,3-dihydrobenzo[b]thiophen-5-yl)oxy)nicotinonitrile] |  |  | EC50 (786-O-Hif-Luc cells): 170 nM; IC50 [1, 4]: 120 nM |
| N#Cc1cc(F)cc(Oc2ccc3c(c2C(F)F)C(=O)C(F)(F)S3(=O)=O)c1 [Compound 149, 3-((4-(Difluoromethyl)-2,2-difluoro-1,1-dioxido-3-oxo-2,3-dihydrobenzo[b]thiophen-5-yl)oxy)-5-fluorobenzonitrile] |  |  | EC50 (786-O-Hif-Luc cells; [5]): 2790 nM; IC50 [1, 4]: 2400 nM |
| N#Cc1c(Oc2cc(F)cc(F)c2)ccc2c1C(O)C(F)S2(=O)=O (stereo not drawn) [Compound 154, 5-(3,5-Difluorophenoxy)-2-fluoro-3-hydroxy-2,3-dihydrobenzo[b]thiophene-4-carbonitrile 1,1-dioxide] | 793 | 1640 |  |
| N#CN=S1(=O)CC(O)c2c1ccc(Oc1cc(F)cc(F)c1)c2C(F)F (stereo not drawn) [Compound 158, N-(4-(Difluoromethyl)-5-(3,5-difluorophenoxy)-3-hydroxy-1-oxido-2,3-dihydro-1λ^4-benzo[b]thiophen-1-ylidene)cyanamide] | 1880 | 1470 |  |
| N#CN=S1(=O)c2ccc(Oc3cc(F)cc(F)c3)c(C(F)F)c2C(O)C1(F)F (stereo not drawn) [Compound 161, N-(4-(Difluoromethyl)-5-(3,5-difluorophenoxy)-2,2-difluoro-3-hydroxy-1-oxido-2,3-dihydro-1λ^4-benzo[b]thiophen-1-ylidene)cyanamide] | 1500 | 20 |  |
| O=S1(=O)c2ccc(OC3CCOCC3)c(C(F)F)c2C(O)C1(F)F (stereo not drawn) [Compound 164, 4-(Difluoromethyl)-2,2-difluoro-3-hydroxy-5-((tetrahydro-2H-pyran-4-yl)oxy)-2,3-dihydrobenzo[b]thiophene 1,1-dioxide] | 1540 | 1900 |  |
| O=S1(=O)c2ccc(Oc3cc(F)cc(Cl)c3)c(Br)c2[C@H](O)C1(F)F [Compound 169, (3S)-4-Bromo-5-(3-chloro-5-fluoro-phenoxy)-2,2-difluoro-1,1-dioxo-3H-benzothiophen-3-ol] |  |  | EC50 (786-O-Hif-Luc cells; [5]): 172 nM; IC50 [1, 4]: 60 nM |
| O=S1(=O)c2ccc(OCc3ccccc3)c(C(F)F)c2C(O)C1(F)F (stereo not drawn) [Compound 175, 5-Benzyloxy-4-(difluoromethyl)-2,2-difluoro-1,1-dioxo-3H-benzothiophen-3-ol] | 510 | 565 |  |
| N#CN=S1(=O)c2ccc(Oc3cc(F)cc(F)c3)c(Cl)c2[C@@H](O)C1(F)F (stereo partly drawn) [Compound 176, N-((3R)-4-Chloro-5-(3,5-difluorophenoxy)-2,2-difluoro-3-hydroxy-1-oxido-2,3-dihydro-1λ^4-benzo[b]thiophen-1-ylidene)cyanamide] | 2160 | 174 |  |
| N#Cc1c(Oc2cccc(F)c2)ccc2c1[C@@H](O)CS2(=O)=O [Compound 186, (R)-5-(3-fluorophenoxy)-3-hydroxy-2,3-dihydrobenzo[b]thiophene-4-carbonitrile 1,1-dioxide] | 492 | 746 |  |
| COc1cc(F)cc(Oc2ccc3c(c2C#N)[C@@H](O)C(F)(F)S3(=O)=O)c1 [Compound 191, (R)-2,2-difluoro-5-(3-fluoro-5-methoxyphenoxy)-3-hydroxy-2,3-dihydrobenzo[b]thiophene-4-carbonitrile 1,1-dioxide] | 15000 | 66 |  |
| Cc1cncc(Oc2ccc3c(c2Br)[C@@H](O)C(F)(F)S3(=O)=O)c1 [Compound 192, (R)-4-bromo-2,2-difluoro-3-hydroxy-5-((5-methylpyridin-3-yl)oxy)-2,3-dihydrobenzo[b]thiophene 1,1-dioxide] | 1420 | 2900 |  |
| O=S1(=O)c2ccc(Oc3cncc(Cl)c3)c(Cl)c2[C@@H](O)C1(F)F [Compound 196, (R)-4-Chloro-5-((5-chloropyridin-3-yl)oxy)-2,2-difluoro-3-hydroxy-2,3-dihydrobenzo[b]thiophene 1,1-dioxide] | 425 | 384 |  |
| COc1c(Oc2cc(F)cc(C#N)c2)ccc2c1C(O)C(F)(F)S2(=O)=O (stereo not drawn) [Compound 197, 3-((2,2-Difluoro-3-hydroxy-4-methoxy-1,1-dioxido-2,3-dihydrobenzo[b]thiophen-5-yl)oxy)-5-fluorobenzonitrile] | 1100 | 940 |  |
| N#Cc1cc(F)cc(Oc2ccc3c(c2F)C(O)C(F)(F)S3(=O)=O)c1 (stereo not drawn) [Compound 198, 3-Fluoro-5-((2,2,4-trifluoro-3-hydroxy-1,1-dioxido-2,3-dihydrobenzo[b]thiophen-5-yl)oxy)benzonitrile] | 882 | 975 |  |

Further lines, with some results ahead:

| EC50 (786-O-Hif-Luc cells; [2]) [nM] | IC50 [1, 3] [nM] | SMILES | other results |
| --- | --- | --- | --- |
| 126 | 86 | N#Cc1cc(F)cc(Oc2ccc3c(c2CF)C(O)C(F)(F)S3(=O)=O)c1 (stereo not drawn) [Compound 152, 3-((2,2-Difluoro-4-(fluoromethyl)-3-hydroxy-1,1-dioxido-2,3-dihydrobenzo[b]thiophen-5-yl)oxy)-5-fluorobenzonitrile] |  |
| 100 | < 5 | Cc1cc(C#N)cc(Oc2ccc3c(c2C(F)F)[C@@H](O)C(F)(F)S3(=O)=O)c1 [Compound 156, (R)-3-((4-(Difluoromethyl)-2,2-difluoro-3-hydroxy-1,1-dioxido-2,3-dihydrobenzo[b]thiophen-5-yl)oxy)-5-methylbenzonitrile] |  |
| 57 | 33 | N[C@@H]1c2c(ccc(Oc3cc(F)cc(F)c3)c2C(F)F)S(=O)(=O)C1(F)F [Compound 165, (R)-3-Amino-4-(difluoromethyl)-5-(3,5-difluorophenoxy)-2,2-difluoro-2,3-dihydrobenzo[b]thiophene 1,1-dioxide] |  |
| 190 | 59 | C#Cc1c(Oc2cc(F)cc(C#N)c2)ccc2c1C(O)C(F)(F)S2(=O)=O (stereo not drawn) [Compound 173, 3-((4-Ethynyl-2,2-difluoro-3-hydroxy-1,1-dioxido-2,3-dihydrobenzo[b]thiophen-5-yl)oxy)-5-fluorobenzonitrile] |  |
| 366 | 120 | N#Cc1c(Oc2cc(F)cc(F)c2)ccc2c1[C@@H](O)CS2(=O)=O [Compound 178, (R)-5-(3,5-difluorophenoxy)-3-hydroxy-2,3-dihydrobenzo[b]thiophene-4-carbonitrile 1,1-dioxide] |  |
| 400 | 12900 | N#Cc1cc(F)cc(Oc2ccc3c(c2C#N)[C@@H](O)CS3(=O)=O)c1 [Compound 180, (R)-5-(3-Cyano-5-fluorophenoxy)-3-hydroxy-2,3-dihydrobenzo[b]thiophene-4-carbonitrile 1,1-dioxide] |  |
| 126 | 305 | O=S1(=O)c2ccc(Oc3cncc(F)c3)c(Br)c2[C@@H](O)C1(F)F [Compound 187, (R)-4-bromo-2,2-difluoro-5-((5-fluoropyridin-3-yl)oxy)-3-hydroxy-2,3-dihydrobenzo[b]thiophene 1,1-dioxide] |  |
| 413 | 57 | COc1cc(F)cc(Oc2ccc3c(c2Br)[C@@H](O)C(F)(F)S3(=O)=O)c1 [Compound 190, (R)-4-Bromo-2,2-difluoro-5-(3-fluoro-5-methoxyphenoxy)-3-hydroxy-2,3-dihydrobenzo[b]thiophene 1,1-dioxide] |  |
| 32 | 17 | N#Cc1cccc(Oc2ccc3c(c2Br)[C@@H](O)C(F)(F)S3(=O)=O)c1 [Compound 194, (R)-3-((4-bromo-2,2-difluoro-3-hydroxy-1,1-dioxido-2,3-dihydrobenzo[b]thiophen-5-yl)oxy)benzonitrile] |  |
| 33 | 34 | N#Cc1cccc(Oc2ccc3c(c2C(F)F)[C@@H](O)C(F)(F)S3(=O)=O)c1 [Compound 199, (R)-3-((4-(difluoromethyl)-2,2-difluoro-3-hydroxy-1,1-dioxido-2,3-dihydrobenzo[b]thiophen-5-yl)oxy)benzonitrile] |  |
| 79 | 24 | O=S1(=O)c2ccc(Oc3ccc(F)c(F)c3)c(C(F)F)c2[C@@H](O)C1(F)F [Compound 200, (R)-4-(Difluoromethyl)-5-(3,4-difluorophenoxy)-2,2-difluoro-3-hydroxy-2,3-dihydrobenzo[b]thiophene 1,1-dioxide] |  |
